Target: T1, Neutrophil elastase (Homo sapiens, UniProt P08246)
T1 sequence (P08246 whole entry): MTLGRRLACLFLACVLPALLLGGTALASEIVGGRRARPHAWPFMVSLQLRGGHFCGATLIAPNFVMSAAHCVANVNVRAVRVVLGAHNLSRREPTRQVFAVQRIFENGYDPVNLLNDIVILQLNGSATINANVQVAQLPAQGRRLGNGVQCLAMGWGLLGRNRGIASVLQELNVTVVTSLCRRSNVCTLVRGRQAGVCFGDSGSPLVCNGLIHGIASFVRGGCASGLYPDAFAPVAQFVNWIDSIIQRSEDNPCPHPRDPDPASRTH
Assay: Human Neutrophil Elastase Assay: Compound buffer: 100 mM Tris, 500 mM NaCl, adjusted to pH 7.5; Assay buffer: 100 mM Tris, 500 mM NaCl, adjusted to pH 7.5, containing 0.01% BSA. Test compounds were prediluted in DMSO and subsequently in compound buffer (5% DMSO final). […] After inactivation of the enzyme, fluorescence intensities were measured at 380 nm excitation and 460 nm emission wavelengths.

Row | SMILES | IC50 [µM]
1 | Cc1c(-c2cccc(C(F)F)c2)c(=O)c(C(=O)NCc2ccc(S(C)(=O)=O)cc2)cn1C1CCOC1 (configuration not stated) | 0.027
2 | Cc1c(-c2cccc(C(F)(F)F)c2)c(=O)c(C(=O)NCc2ccc(S(C)(=O)=O)s2)cn1C(C)C | 0.028
